Measurements as given in US20140323504A1, “Pyrazolo[4,3-c]Pyridine Derivatives As Kinase Inhibitors” (Cellzome Limited, priority 2011, published 2014).

Key:
[1] = target: T1, JAK3 (Homo sapiens, UniProt P52333); assay: Kinobeads assay with antibody detection, JAK3; type: binding; parameters: endogenous in cells; host or cells: mixed Molt4/Ramos cell lysate (1:2); details: mixed Molt4/Ramos lysate, read-out: JAK3 inhibition value (IC50)
T1 sequence (P52333 1-1124): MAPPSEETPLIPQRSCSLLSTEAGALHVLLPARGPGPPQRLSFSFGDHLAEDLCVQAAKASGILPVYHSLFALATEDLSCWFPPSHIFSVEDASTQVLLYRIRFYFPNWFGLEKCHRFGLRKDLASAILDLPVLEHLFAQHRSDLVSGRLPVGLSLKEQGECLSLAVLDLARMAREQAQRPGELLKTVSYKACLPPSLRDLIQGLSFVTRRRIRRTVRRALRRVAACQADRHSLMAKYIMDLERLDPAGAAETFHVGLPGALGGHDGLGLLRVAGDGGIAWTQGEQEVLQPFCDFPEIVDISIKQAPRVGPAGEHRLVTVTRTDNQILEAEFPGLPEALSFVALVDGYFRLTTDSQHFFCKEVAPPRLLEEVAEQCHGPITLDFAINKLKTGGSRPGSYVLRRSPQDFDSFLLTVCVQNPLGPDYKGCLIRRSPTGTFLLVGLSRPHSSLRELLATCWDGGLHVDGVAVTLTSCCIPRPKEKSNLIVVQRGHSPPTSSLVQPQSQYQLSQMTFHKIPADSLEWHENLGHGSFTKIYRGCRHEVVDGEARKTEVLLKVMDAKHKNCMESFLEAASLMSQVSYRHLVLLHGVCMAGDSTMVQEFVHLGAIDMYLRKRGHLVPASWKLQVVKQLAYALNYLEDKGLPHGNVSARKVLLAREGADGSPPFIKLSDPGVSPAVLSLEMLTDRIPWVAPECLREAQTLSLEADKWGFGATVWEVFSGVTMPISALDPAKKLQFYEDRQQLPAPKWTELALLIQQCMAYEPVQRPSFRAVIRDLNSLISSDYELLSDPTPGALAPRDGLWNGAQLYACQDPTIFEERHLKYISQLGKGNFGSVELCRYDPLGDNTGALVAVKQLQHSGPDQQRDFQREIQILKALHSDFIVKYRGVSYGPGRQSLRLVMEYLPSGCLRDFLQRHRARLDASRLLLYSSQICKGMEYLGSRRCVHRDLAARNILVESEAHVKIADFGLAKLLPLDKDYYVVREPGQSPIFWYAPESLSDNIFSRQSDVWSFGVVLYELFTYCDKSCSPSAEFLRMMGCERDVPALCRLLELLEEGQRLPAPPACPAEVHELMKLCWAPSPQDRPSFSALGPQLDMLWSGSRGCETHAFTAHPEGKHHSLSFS
Protocol: (§1) The compounds of the present invention as described in the previous examples were tested in a Kinobeads™ assay as described for ZAP-70 (WO-A 2007/137867). Briefly, test compounds (at various concentrations) and the affinity matrix with the immobilized aminopyrido-pyrimidine ligand 24 were added to cell lysate aliquots and allowed to bind to the proteins in the lysate sample. After the incubation time the beads with captured proteins were separated from the lysate. Bound proteins were then eluted and the presence of JAK1; JAK2, JAK3 and TYK2 was detected and quantified using specific antibodies in a dot blot procedure and the Odyssey infrared detection system. Dose response curves for individual kinases were generated and IC50 values calculated. Kinobeads™ assays for ZAP-70 (WO-A 2007/137867) and for kinase selectivity profiling (WO-A 2006/134056) have been previously described.
(§2) 5×DP buffer: 250 mM Tris-HCl pH 7.4, 25% Glycerol, 7.5 mM MgCl2, 750 mM NaCl, 5 mM Na3VO4; filter the 5×DP buffer through a 0.22 μm filter and store in aliquot at −80° C. The 5×DP buffer is diluted with H2O to 1×DP buffer containing 1 mM DTT and 25 mM NaF.
(§3) Stock solutions of test compounds were prepared in DMSO. In a 96 well plate 30 μL solution of diluted test compounds at 5 mM in DMSO were prepared. Starting with this solution a 1:3 dilution series (9 steps) was prepared. For control experiments (no test compound) a buffer containing 2% DMSO was used.
(§4) Molt4 cells (ATCC catalogue number CRL-1582) and Ramos cells (ATCC catalogue number CRL-1596) were grown in 1 L Spinner flasks (Integra Biosciences, #182101) in suspension in RPMI 1640 medium (Invitrogen, #21875-034) supplemented with 10% Fetal Bovine Serum (Invitrogen) at a density between 0.15×10^6 and 1.2×10^6 cells/mL. Cells were harvested by centrifugation, washed once with 1×PBS buffer (Invitrogen, #14190-094) and cell pellets were frozen in liquid nitrogen and subsequently stored at −80° C. Cells were homogenized in a Potter S homogenizer in lysis buffer: 50 mM Tris-HCl, 0.8% NP40, 5% glycerol, 150 mM NaCl, 1.5 mM MgCl2, 25 mM NaF, 1 mM sodium vanadate, 1 mM DTT, pH 7.5. One complete EDTA-free tablet (protease inhibitor cocktail, Roche Diagnostics, 1873580) per 25 mL buffer was added. The material was dounced 10 times using a mechanized POTTER S, transferred to 50 mL falcon tubes, incubated for 30 minutes on ice and spun down for 10 minutes at 20,000 g at 4° C. (10,000 rpm in Sorvall SLA600, precooled). The supernatant was transferred to an ultracentrifuge (UZ)-polycarbonate tube (Beckmann, 355654) and spun for 1 hour at 100.000 g at 4° C. (33.500 rpm in Ti50.2, precooled). The supernatant was transferred again to a fresh 50 mL falcon tube, the protein concentration was determined by a Bradford assay (BioRad) and samples containing 50 mg of protein per aliquot were prepared. The samples were immediately used for experiments or frozen in liquid nitrogen and stored frozen at −80° C.
(§5) Cell lysate (approximately 50 mg protein per plate) was thawed in a water bath at room temperature and then stored on ice. To the thawed cell lysate 1×DP 0.8% NP40 buffer containing protease inhibitors (1 tablet for 25 mL buffer; EDTA-free protease inhibitor cocktail; Roche. Diagnostics 1873580) was added in order to reach a final protein concentration of 10 mg/mL total protein. The diluted cell lysate was stored on ice. Mixed Molt4Ramos lysate was prepared by combining one volume of Molt4 lysate and two volumes of Ramos lysate (ratio 1:2).
(§6) Plates were sealed and incubated for 3 hours in a cold room on a plate shaker (Heidolph tiramax 1000) at 750 rpm. Afterwards the plate was washed 3 times with 230 μL washing buffer (1×DP 0.4% NP40). The filter plate was placed on top of a collection plate (Greiner bio-one, PP-microplate 96 well V-shape, 65120) and the beads were then eluted with 20 μL of sample buffer (100 mM Tris, pH 7.4, 4% SDS, 0.00025% bromophenol blue, 20% glycerol, 50 mM DTT). […]

[2] = target: T2, JAK1 (Homo sapiens, UniProt P23458); assay: Kinobeads assay with antibody detection, JAK1; type: binding; details: mixed Molt4/Ramos lysate, read-out: JAK1 inhibition value (IC50)
T2 construct: endogenous in cells; host or cells: mixed Molt4/Ramos cell lysate (1:2)
Protocol: as §1, §2, §3, §4, §5, §6

T2 sequence (P23458 whole entry): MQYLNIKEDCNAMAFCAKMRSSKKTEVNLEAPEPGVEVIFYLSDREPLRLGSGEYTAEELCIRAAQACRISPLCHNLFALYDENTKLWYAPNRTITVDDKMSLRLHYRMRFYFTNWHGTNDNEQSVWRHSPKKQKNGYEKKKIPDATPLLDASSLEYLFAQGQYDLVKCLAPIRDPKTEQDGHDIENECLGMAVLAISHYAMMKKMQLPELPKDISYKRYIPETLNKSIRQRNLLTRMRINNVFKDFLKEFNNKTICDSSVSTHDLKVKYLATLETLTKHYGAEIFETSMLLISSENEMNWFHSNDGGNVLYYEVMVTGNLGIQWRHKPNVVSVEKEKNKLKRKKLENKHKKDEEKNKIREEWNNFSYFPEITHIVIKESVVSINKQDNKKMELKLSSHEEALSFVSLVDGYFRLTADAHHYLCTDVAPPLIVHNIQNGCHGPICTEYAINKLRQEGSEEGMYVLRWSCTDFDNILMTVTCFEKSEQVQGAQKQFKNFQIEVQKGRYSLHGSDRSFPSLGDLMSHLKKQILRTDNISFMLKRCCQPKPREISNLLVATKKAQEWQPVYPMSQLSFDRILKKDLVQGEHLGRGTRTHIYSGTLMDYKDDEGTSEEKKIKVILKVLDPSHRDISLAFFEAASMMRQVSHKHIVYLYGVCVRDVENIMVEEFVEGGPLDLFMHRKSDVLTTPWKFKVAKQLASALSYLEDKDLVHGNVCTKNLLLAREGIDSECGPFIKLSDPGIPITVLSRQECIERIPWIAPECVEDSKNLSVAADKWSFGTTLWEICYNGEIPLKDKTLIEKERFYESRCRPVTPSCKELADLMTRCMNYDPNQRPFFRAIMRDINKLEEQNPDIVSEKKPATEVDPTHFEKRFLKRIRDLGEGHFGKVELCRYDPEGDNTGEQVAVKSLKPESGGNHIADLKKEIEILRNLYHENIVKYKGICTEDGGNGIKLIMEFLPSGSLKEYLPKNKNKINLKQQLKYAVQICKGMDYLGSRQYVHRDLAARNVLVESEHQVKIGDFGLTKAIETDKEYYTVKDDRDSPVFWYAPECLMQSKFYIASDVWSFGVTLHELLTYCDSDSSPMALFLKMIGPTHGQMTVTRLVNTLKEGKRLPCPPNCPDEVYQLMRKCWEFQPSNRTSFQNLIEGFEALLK

| IC50 [1] | IC50 [2] | Structure (SMILES) |
| --- | --- | --- |
| 0.005 µM | > 10 µM | C=CC(=O)Nc1cccc(Cn2ncc3cnc(Nc4cnn(C)c4)nc32)c1 [Example 1, N-(3-((6-((1-Methyl-1H-pyrazol-4-yl)amino)-1H-pyrazolo[3,4-d]pyrimidin-1-yl)methyl)phenyl)acrylamide] |
| 0.057 µM | > 10 µM | C=C(C)C(=O)Nc1cccc(Cn2ncc3cnc(Nc4cnn(C)c4)nc32)c1 [Example 5, N-(3-((6-((1-Methyl-1H-pyrazol-4-yl)amino)-1H-pyrazolo[3,4-d]pyrimidin-1-yl)methyl)phenyl)methacrylamide] |
| 0.016 µM | > 10 µM | C=CC(=O)Nc1cc(Cn2ncc3cnc(Nc4cnn(C)c4)nc32)ccc1F [Example 2, […]] |
| 0.01 µM | > 10 µM | C#CC(=O)Nc1cccc(Cn2ncc3cnc(Nc4cnn(C)c4)nc32)c1 [Example 3, N-(3-((6-((1-Methyl-1H-pyrazol-4-yl)amino)-1H-pyrazolo[3,4-d]pyrimidin-1-yl)methyl)phenyl)propiolamide] |
| 0.206 µM | > 10 µM | CC(=O)Nc1cccc(Cn2ncc3cnc(Nc4cnn(C)c4)nc32)c1 [compound 2, N-(3-((6-((1-methyl-1H-pyrazol-4-yl)amino)-1H-pyrazolo[3,4-d]pyrimidin-1-yl)methyl)phenyl)acetamide, reference compound] |
| 0.01 µM | > 10 µM | C=CS(=O)(=O)Nc1cccc(Cn2ncc3cnc(Nc4cnn(C)c4)nc32)c1 [Example 4, N-(3-((6-((1-Methyl-1H-pyrazol-4-yl)amino)-1H-pyrazolo[3,4-d]pyrimidin-1-yl)methyl)phenyl)ethenesulfonamide] |
| 0.012 µM | 7.69 µM | C=CS(=O)(=O)Nc1cccc(Cn2ccc3cnc(Nc4cnn(C)c4)nc32)c1 [Example 7, N-(3-((2-((1-Methyl-1H-pyrazol-4-yl)amino)-7H-pyrrolo[2,3-d]pyrimidin-7-yl)methyl)phenyl)ethenesulfonamide] |
